In ChEMBL document CHEMBL1201862, “PubChem BioAssay data set” (2004):
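96-well plates; 48 h exposure; 5 concentrations. Endpoints by linear interpolation between flanking doses. Not reached: highest tested concentration assigned. GI50 marks 50% less growth.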 Active and inactive are the calls of the source. Rule as the data show it: active = GI50 up to about 1.1 µM and inactive = higher.

Tests used:
Test in all cases: DTP human tumour cell line panel, 48 h
OVCAR-8 = system: OVCAR-8
NCI-H23 = system: NCI-H23
SK-MEL-28 = system: SK-MEL-28
HCC 2998 = system: HCC 2998
SF-539 = system: SF-539
SNB-75 = system: SNB-75
RXF 393 = system: RXF 393
DU-145 = system: DU-145
PC-3 = system: PC-3
MDA-N = system: MDA-N
SK-MEL-5 = system: SK-MEL-5
MCF7 = system: MCF7
HCT-116 = system: HCT-116
M14 = system: M14
SF-295 = system: SF-295
ACHN = system: ACHN
HCT-15 = system: HCT-15
UACC-257 = system: UACC-257
SF-268 = system: SF-268

SMILES	GI50 (OVCAR-8)	GI50 (NCI-H23)	GI50 (SK-MEL-28)	GI50 (HCC 2998)	GI50 (SF-539)	GI50 (SNB-75)	GI50 (RXF 393)	GI50 (DU-145)	GI50 (PC-3)	GI50 (MDA-N)	GI50 (SK-MEL-5)	GI50 (MCF7)	GI50 (HCT-116)	GI50 (M14)	GI50 (SF-295)	GI50 (ACHN)	GI50 (HCT-15) [µM]	GI50 (UACC-257)	GI50 (SF-268)
C=C(C(=O)OC)[C@H]1CC/C(C)=C/CC/C(C)=C/CC[C@@]2(C)O[C@@H]2C1	13.8 µM (inactive)	19.3 µM (inactive)	34.6 µM (inactive)	16 µM (inactive)	17.9 µM (inactive)	65.2 µM (inactive)	14.9 µM (inactive)	21.9 µM (inactive)	18 µM (inactive)	18.2 µM (inactive)	10.3 µM (inactive)	17 µM (inactive)	15.4 µM (inactive)	21.9 µM (inactive)	11.5 µM (inactive)	19.8 µM (inactive)	16.3	23.8 µM (inactive)	–
COc1ccc2c(c1)-c1[nH]c3ccccc3c1CC2	12.6 µM (inactive)	13.6 µM (inactive)	16.8 µM (inactive)	10.2 µM (inactive)	17.4 µM (inactive)	15.2 µM (inactive)	–	17.9 µM (inactive)	14.9 µM (inactive)	16 µM (inactive)	13.2 µM (inactive)	14.9 µM (inactive)	16.9 µM (inactive)	17.4 µM (inactive)	14.2 µM (inactive)	18.1 µM (inactive)	14.7	16.3 µM (inactive)	14.9 µM (inactive)
O=C(CN1c2ccccc2Sc2ccccc21)N1CCNCC1	> 100 µM (inactive)	> 100 µM (inactive)	> 100 µM (inactive)	–	> 100 µM (inactive)	30.9 µM (inactive)	97.5 µM (inactive)	> 100 µM (inactive)	73.1 µM (inactive)	> 100 µM (inactive)	40.3 µM (inactive)	> 100 µM (inactive)	> 100 µM (inactive)	> 100 µM (inactive)	> 100 µM (inactive)	> 100 µM (inactive)	> 100	> 100 µM (inactive)	> 100 µM (inactive)
C#CCCCCC#Cc1ccccc1C(=O)C=[N+]=[N-]	> 100 µM (inactive)	> 100 µM (inactive)	> 100 µM (inactive)	> 100 µM (inactive)	> 100 µM (inactive)	95.1 µM (inactive)	> 100 µM (inactive)	> 100 µM (inactive)	> 100 µM (inactive)	> 100 µM (inactive)	> 100 µM (inactive)	> 100 µM (inactive)	> 100 µM (inactive)	> 100 µM (inactive)	> 100 µM (inactive)	> 100 µM (inactive)	> 100	> 100 µM (inactive)	> 100 µM (inactive)
CCOC(=O)c1ccc(-c2onc(C)c2Br)[nH]1	37.4 µM (inactive)	46.8 µM (inactive)	> 100 µM (inactive)	> 100 µM (inactive)	–	41.7 µM (inactive)	21.4 µM (inactive)	55.3 µM (inactive)	60 µM (inactive)	66.4 µM (inactive)	41.3 µM (inactive)	27.7 µM (inactive)	30.1 µM (inactive)	62.7 µM (inactive)	39.5 µM (inactive)	37.6 µM (inactive)	36.1	47.2 µM (inactive)	> 100 µM (inactive)
CC(O)CCNC(=O)Nc1c(C(F)(F)F)cc(-c2ccccc2)[nH]c1=O (centres undefined)	> 100 µM (inactive)	> 100 µM (inactive)	> 100 µM (inactive)	> 100 µM (inactive)	–	> 100 µM (inactive)	> 100 µM (inactive)	> 100 µM (inactive)	> 100 µM (inactive)	> 100 µM (inactive)	> 100 µM (inactive)	> 100 µM (inactive)	> 100 µM (inactive)	> 100 µM (inactive)	> 100 µM (inactive)	> 100 µM (inactive)	> 100	> 100 µM (inactive)	> 100 µM (inactive)
